According to patent US7459532B2, “Variants of the TRP channel family member, LTRPC3G” (Bristol-Myers Squibb Company, priority 2003, dated 2008):
Entries after “also recorded” stand apart in the source; their conditions may differ.

How the values were obtained:
[1] = tested on: HEK 293 cells; assay: Ca^2+ store depletion in LTRPC3-HA- and vector-transfected HEK 293 cells; assay type: cell-based
Description: (§1) […] (A), or 50 μM carbachol (B) was first added to LTRPC3 variant expressing HEK 293 cells in the absence of external Ca^2+. After 9 minutes, 2 mM Ca^2+ solution was added to the cell medium at the indicated times. Currents for vector transfected HEK 293 cells, and LTRPC3 variant expressing HEK 293 cells are labeled accordingly. […] Cells loaded with Fluo-4 were incubated in 1 mM Ca^2+ solution and treated with 100 μM of La^3+ (“w/La^3+”), Gd^3+ (“w/Gd^3+”) or without blockers (“w/o blocker”) for 10 min prior to the addition of 10 mM Ca^2+ to the cell medium as indicated. Curves represent averages of three independent experiments, each involving at least 8 wells per condition. Physiometric methods were performed as described in Example 7 herein.
The store-operated mechanism of LTRPC3-mediated Ca^2+ influx was tested further by passively depleting Ca^2+ stores with thapsigargin (TG), an inhibitor of microsomal Ca^2+ ATPases that pumps ions from the cytosol back into the stores. […] Following store depletion with TG, addition of Ca^2+ to the buffer induced a much larger Ca^2+ entry in LTRPC3 cells compared to the vector control cells.
Receptor-mediated Ca^2+ entry was also more pronounced in LTRPC3-HA-transfected cells. Carbachol (CCh) can activate an endogenous muscarinic receptor and trigger IP3 production, leading to store-depletion in HEK 293 cells. […]

[2] = target: T1, LTRPC3 (Homo sapiens, UniProt Q9HCF6, R1695Q); assay: FLIPR Fluo-4 Ca^2+ entry in LTRPC3-transfected HEK 293 cells; assay type: cell-based; details: for block of LTRPC3 Ca^2+ conductance/currents (in words): 1 mM Ca^2+ solution, addition of 10 mM Ca^2+; for block of LTRPC3 Ca^2+ currents: pre-treatment with 100 μM, stimulated by adding 10 mM Ca^2+
T1 construct: the complete open reading frame of LTRPC3 with a C-terminal HA tag was transiently transfected into HEK 293 cells; expressed in transfected cells; host or cells: HEK 293 (transient transfection, vector pcDNA3.1/Hygro-LTRPC3-HA)
Description: as §1
(§2) Panels A, C and E show results obtained for vector-transfected cells, while Panels B, D and F show results obtained for TRPM3-transfected cells. […] Cells loaded with Fluo-4 were incubated in 1 mM Ca^2+ solution and treated with 100 μM of Gd^3+ (red) or without blockers (black) for 10 min prior to the addition of 10 mM Ca^2+ to the bath solution as indicated. […] Cells loaded with Fluo-4 were incubated in a nominally Ca^2+-free media and treated without blockers (black) or with 100 μM of Gd^3+ (red) for 10 min prior to the addition of 2 μM TG (Panels C and D, first arrow) or 50 μM CCh (Panels E and F, first arrow), Ca^2+ entry was stimulated by the bath addition of 10 mM Ca^2+ (second arrow). Representative traces from one of three independent experiments are shown; each trace is the mean of 12 wells per condition. Physiometric methods were performed as described in Example 10 herein.
Moreover, physiometric studies have shown that LTRPC3 is a functional Ca^2+ permeable channel (see FIGS. 18 and 19, and Example 7). LTRPC3g function was assessed using a Fluorometric Imaging Plate Reader (FLIPR™) that measures real-time intracellular fluorescence changes. Cells transiently transfected with vector or LTRPC3-HA were loaded with the cytoplasmic Ca^2+ indicator Fluoro-4 in a 1 mM Ca^2+ solution. […] The non-transfected cells were indistinguishable from the vector-transfected cells (data not shown). Therefore, LTRPC3 is a constitutively active channel capable of mediating Ca^2+ influx.
The lanthanides, gadolinium (Gd^3+) and lanthanum (La^3+), are noneselective Ca^2+-permeable channel blockers, often used as part of the characterization of overexpressed TRP channels. […] In the presence of 1 mM Ca^2+ in which endogenous SOCs is minimally activated (FIG. 18A), pre-treatment with 100 μM of La^3+ and Gd^3+ blocked LTRPC3 Ca^2+ currents, stimulated by adding 10 mM Ca^2+, by 67 and 39%, respectively.
Additional experiments were performed to further confirm the Ca^2+ store-depleted activation of LTRPC3 using Gd^3+. The effects of 100 μM Gd^3+ on Ca^2+ permeability were tested in vector- and LTRPC3-transfected cells. […] In contrast, 100 μM Gd^3+ inhibited Ca^2+ entry, induced by adding 10 mM Ca^2+, by 53% in LTRPC3-transfected cells (see FIG. 22B). Gd^3+ reduced fluorescence units in vector-transfected cells from 1470±140 to −58±8 and in LTRPC3-transfected cells from 6000±322 to 2080±199 (n=12). Fluorescence values were measured 150 seconds after adding 10 mM Ca^2+ and percent blockade was calculated as 1 minus FLTRPC3-FVector in the presence of Gd^3+ divided by FLTRPC3-FVector without blocker. The effects of Gd^3+ on LTRPC3-mediated Ca^2+ entry, induced by 10 mM Ca^2+, in the presence of thapsigargin or carbachol was also examined. Cells were incubated in nominally Ca^2+-free medium for thapsigargin and carbachol experiments. Gd^3+ inhibited Ca^2+ entry by 51% after depletion of intracellular stores with thapsigargin (see FIG. 22B). Gd^3+ reduced peak fluorescence after 10 mM Ca^2+ addition in vector-transfected cells from 26444±2410 to 1316±60 and in LTRPC3-transfected cells from 37676±2425 to 6783±250 (see FIGS. 22C and D, respectively; n=12). […]

[3] = tested on: female recipients; details: picogram quantities to the female vomeronasal organ; cited from earlier work
[4] = tested on: Human lung fibroblasts; assay: human lung fibroblast growth assay with Alamar Blue; assay type: cell-based; details: 3 days in basal medium
Description: Human lung fibroblasts are obtained from Clonetics (San Diego, Calif.) and maintained in growth media from Clonetics. Dermal microvascular endothelial cells are obtained from Cell Applications (San Diego, Calif.). For proliferation assays, the human lung fibroblasts and dermal microvascular endothelial cells can be cultured at 5,000 cells/well in a 96-well plate for one day in growth medium. The cells are then incubated for one day in 0.1% BSA basal medium. After replacing the medium with fresh 0.1% BSA medium, the cells are incubated with the test proteins for 3 days. Alamar Blue (Alamar Biosciences, Sacramento, Calif.) is added to each well to a final concentration of 10%. The cells are incubated for 4 hr. Cell viability is measured by reading in a CytoFluor fluorescence reader. For the PGE2 assays, the human lung fibroblasts are cultured at 5,000 cells/well in a 96-well plate for one day. […]

[5] = tested on: nigral dopaminergic neurons; details: gel foam implants in the striatum; cited from earlier work
[6] = tested on: endogenous Ca^2+ entry pathways present in HEK 293 cells; assay: FLIPR Fluo-4 Ca^2+ entry in vector-transfected HEK 293 cells; assay type: cell-based; details: 100 μM
Description: as §2
To further address the mechanism of LTRPC3-mediated Ca^2+ entry, similar Ca^2+ addition experiments were performed on transfected cells incubated (˜30 min) in a nominally Ca^2+-free solution. Previous studies have shown that lowering extracellular Ca^2+ concentration below physiological levels can deplete intracellular Ca^2+ stores in many cell types including HEK 293 (EMBO J. 17, 4274-4282, (1998)). Incubating vector-transfected HEK 293 cells in a nominally Ca^2+-free solution gave rise to Ca^2+ entry that was dependent on the concentration of Ca^2+ added to the buffers, indicating Ca^2+ influx was mediated through endogenous SOCs in HEK293 cells (FIG. 18, left panels). In LTRPC3 cells, the Ca^2+ transients triggered by similar Ca^2+ treatment were much larger (FIG. 18, right panels).
Additional experiments were performed to further confirm the Ca^2+ store-depleted activation of LTRPC3 using Gd^3+. The effects of 100 μM Gd^3+ on Ca^2+ permeability were tested in vector- and LTRPC3-transfected cells. […] In contrast, 100 μM Gd^3+ inhibited Ca^2+ entry, induced by adding 10 mM Ca^2+, by 53% in LTRPC3-transfected cells (see FIG. 22B). Gd^3+ reduced fluorescence units in vector-transfected cells from 1470±140 to −58±8 and in LTRPC3-transfected cells from 6000±322 to 2080±199 (n=12). Fluorescence values were measured 150 seconds after adding 10 mM Ca^2+ and percent blockade was calculated as 1 minus FLTRPC3-FVector in the presence of Gd^3+ divided by FLTRPC3-FVector without blocker. […] Gd^3+ reduced peak fluorescence after 10 mM Ca^2+ addition in vector-transfected cells from 26444±2410 to 1316±60 and in LTRPC3-transfected cells from 37676±2425 to 6783±250 (see FIGS. 22C and D, respectively; n=12). […] Gd^3+ reduced peak Ca^2+ fluorescence in vector-transfected cells from 9327±466 to 453±15 and in LTRPC3-transfected cells from 14747±988 to 1975±79 (see FIGS. 22E and F, respectively; n=12).

[7] = 100 μM, nominally Ca^2+-free medium, 10 mM Ca^2+ addition

T1 sequence (Q9HCF6 with tags, fused parts or gaps isoform Q9HCF6-2 R1670Q): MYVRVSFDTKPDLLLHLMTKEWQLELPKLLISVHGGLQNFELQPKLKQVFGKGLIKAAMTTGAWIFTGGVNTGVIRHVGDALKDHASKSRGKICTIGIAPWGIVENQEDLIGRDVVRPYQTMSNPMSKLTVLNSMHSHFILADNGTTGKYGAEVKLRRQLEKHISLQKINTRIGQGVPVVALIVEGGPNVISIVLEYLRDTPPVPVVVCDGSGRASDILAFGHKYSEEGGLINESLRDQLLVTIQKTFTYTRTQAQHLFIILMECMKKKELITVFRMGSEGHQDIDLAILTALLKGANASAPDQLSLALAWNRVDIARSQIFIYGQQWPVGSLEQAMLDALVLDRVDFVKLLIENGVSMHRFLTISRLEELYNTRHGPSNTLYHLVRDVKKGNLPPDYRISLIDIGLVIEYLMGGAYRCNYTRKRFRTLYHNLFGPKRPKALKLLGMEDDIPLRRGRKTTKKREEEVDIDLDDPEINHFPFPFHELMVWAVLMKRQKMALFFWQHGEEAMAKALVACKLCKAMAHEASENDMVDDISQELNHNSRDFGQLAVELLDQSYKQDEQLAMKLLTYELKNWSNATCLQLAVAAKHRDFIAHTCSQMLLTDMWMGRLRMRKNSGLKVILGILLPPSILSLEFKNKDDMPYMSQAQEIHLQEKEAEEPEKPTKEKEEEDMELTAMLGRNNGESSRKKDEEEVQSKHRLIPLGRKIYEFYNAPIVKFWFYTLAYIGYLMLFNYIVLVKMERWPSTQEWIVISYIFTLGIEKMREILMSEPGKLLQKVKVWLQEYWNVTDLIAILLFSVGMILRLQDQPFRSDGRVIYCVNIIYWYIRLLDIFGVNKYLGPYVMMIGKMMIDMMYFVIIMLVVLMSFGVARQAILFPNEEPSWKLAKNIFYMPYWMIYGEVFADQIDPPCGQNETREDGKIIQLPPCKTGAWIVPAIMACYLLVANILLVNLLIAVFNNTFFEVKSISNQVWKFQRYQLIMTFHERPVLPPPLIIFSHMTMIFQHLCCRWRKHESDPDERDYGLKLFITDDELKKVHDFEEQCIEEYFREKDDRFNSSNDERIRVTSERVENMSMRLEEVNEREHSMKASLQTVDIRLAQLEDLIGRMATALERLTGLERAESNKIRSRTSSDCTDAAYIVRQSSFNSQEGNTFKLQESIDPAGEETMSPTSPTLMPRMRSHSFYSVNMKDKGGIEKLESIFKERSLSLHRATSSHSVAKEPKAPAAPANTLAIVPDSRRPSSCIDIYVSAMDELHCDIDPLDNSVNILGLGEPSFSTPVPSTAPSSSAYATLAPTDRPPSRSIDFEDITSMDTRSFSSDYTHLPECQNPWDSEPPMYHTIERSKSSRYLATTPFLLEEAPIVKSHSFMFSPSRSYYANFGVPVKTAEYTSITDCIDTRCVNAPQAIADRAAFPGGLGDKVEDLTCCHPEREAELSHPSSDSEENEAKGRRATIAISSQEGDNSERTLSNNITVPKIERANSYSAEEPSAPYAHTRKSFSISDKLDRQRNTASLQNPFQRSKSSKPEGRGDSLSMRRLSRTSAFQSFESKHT

**Q.** For `C/C=C(/C)C(=O)O[C@H]1C(C)=C2[C@H]([C@@H]1OC(=O)CCCCCCC)[C@@](C)(OC(C)=O)C[C@H](OC(=O)CCC)[C@@]1(O)[C@H]2OC(=O)[C@@]1(C)O` [thapsigargin], which “depletion of Ca^2+ stores (in words)” value ([1]; 2 μM, LTRPC3-HA- and vector-transfected cells) is on record?
**A.** equivalently depleted Ca^2+ stores

**Q.** What does the source list for `[La+3]` [La^3+, lanthanum (La^3+)]?
**A.** block of LTRPC3 Ca^2+ conductance/currents (in words) ([2]; 100 μM for 10 min): inhibited; also recorded: more potent; block of LTRPC3 Ca^2+ currents ([2]; 1 mM Ca^2+): 67%

**Q.** With `C[C@@]12C=CC[C@H]1[C@@H]1CCC3=CC(=O)CC[C@]3(C)[C@H]1CC2` [androstadienone] as the compound, how does the “nervousness, tension and other negative feelings” value [3] read?
**A.** significant reduction

**Q.** Which results are given for “FGF-2: FGF-2 (basic FGF), growth factor used as comparator”?
**A.** concentration at which stimulation of fibroblast growth should be shown [4]: 10 to 2500 ng/mL; protection of nigral dopaminergic neurons from the toxicity associated with MPTP exposure [5]: near complete protection

**Q.** For `C[N+](C)(C)CCOC(N)=O` [CCh, Carbachol], which “intracellular Ca^2+ response (in words)” value ([1]; 50 μM, LTRPC3- and vector-transfected cells) is on record?
**A.** transient and rapid intracellular Ca^2+ increase

**Q.** Which “fluorescence in the presence of blocker, vector-transfected cells” value ([6]; 1 mM Ca^2+, 150 seconds after adding 10 mM Ca^2+, n=12) does the source give for `[Gd+3]` [Gd^3+, gadolinium (Gd^3+)] here?
**A.** −58±8 fluorescence units

**Q.** What about the “effect on minimal Ca^2+ influx in vector-transfected cells (in words)” value ([6]; 1 mM Ca^2+, addition of 10 mM Ca^2+) of the same compound?
**A.** strongly inhibited

**Q.** And the “peak Ca^2+ fluorescence in the presence of blocker after carbachol, vector-transfected cells” value ([6]; nominally Ca^2+-free medium, 10 mM Ca^2+ addition, n=12)?
**A.** 453±15

**Q.** And the “peak fluorescence in the presence of blocker after thapsigargin, vector-transfected cells” value ([6]; nominally Ca^2+-free medium, after 10 mM Ca^2+ addition, n=12)?
**A.** 1316±60

**Q.** And the “block of LTRPC3 Ca^2+ conductance/currents (in words)” value ([2]; 100 μM for 10 min)?
**A.** partially inhibited

**Q.** What about the “effect on Tg and CCh induced LTRPC3 variant-mediated Ca^2+ entry (in words)” value ([2]; 100 μM for 10 min, nominally Ca^2+-free media, 2 μM TG or 50 μM CCh, 10 mM Ca^2+) of the same compound?
**A.** can be inhibited

**Q.** What about the “fluorescence in the presence of blocker, LTRPC3-transfected cells” value ([2]; 100 μM, 1 mM Ca^2+, 150 seconds after adding 10 mM Ca^2+, n=12) of the same compound?
**A.** 2080±199 fluorescence units

**Q.** What about the “inhibition of Ca^2+ entry (percent blockade)” value ([2]; 100 μM, cells in 1 mM Ca^2+, induced by adding 10 mM Ca^2+, 150 seconds after addition) of the same compound?
**A.** 53%

**Q.** And the “inhibition of Ca^2+ entry after depletion of intracellular stores with carbachol” value [2, 7]?
**A.** 72%

**Q.** What about the “inhibition of Ca^2+ entry after depletion of intracellular stores with thapsigargin” value [2, 7] of the same compound?
**A.** 51%

**Q.** What about the “peak Ca^2+ fluorescence in the presence of blocker after carbachol, LTRPC3-transfected cells” value ([2]; 100 μM, nominally Ca^2+-free medium, 10 mM Ca^2+ addition, n=12) of the same compound?
**A.** 1975±79

**Q.** And the “peak fluorescence in the presence of blocker after thapsigargin, LTRPC3-transfected cells” value ([2]; 100 μM, nominally Ca^2+-free medium, after 10 mM Ca^2+ addition, n=12)?
**A.** 6783±250

**Q.** What about the “block of LTRPC3 Ca^2+ currents” value ([2]; 1 mM Ca^2+) of the same compound?
**A.** 39%
